Source: ChEMBL document CHEMBL1201862, “PubChem BioAssay data set” (2004)
Calls of active or inactive are those of the source.

How the values were obtained:
Cytochrome P450 2D6 = Cytochrome P450 2D6 (Homo sapiens, UniProt P10635);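 note: CYP2D6 member of a cytochrome P450 panel assay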
[1] = molecular target: T1, Ubiquitin-conjugating enzyme E2 N (Homo sapiens, UniProt P61088); assay type: functional;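 note: Dose-response confirmation in a TR-FRET assay detecting UBC13-driven polyubiquitin chain formation, inhibition measured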
T1 sequence (P61088 whole entry): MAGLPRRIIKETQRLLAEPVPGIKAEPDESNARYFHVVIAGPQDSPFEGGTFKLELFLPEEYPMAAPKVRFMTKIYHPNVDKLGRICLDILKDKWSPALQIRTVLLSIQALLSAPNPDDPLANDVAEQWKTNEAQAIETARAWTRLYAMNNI

[2] = molecular target: T2, Polyadenylate-binding protein 1 (Homo sapiens, UniProt P11940); assay: PABP1 MLLE–PAM2 interaction inhibitors, dose response, miRNA deadenylation inhibitor project, biochemical, fluorescence polarization, Cy5-PAM2 peptide, secondary (AID 602260); assay type: functional; settings: read-out: IC50_Mean
T2 sequence (P11940 whole entry): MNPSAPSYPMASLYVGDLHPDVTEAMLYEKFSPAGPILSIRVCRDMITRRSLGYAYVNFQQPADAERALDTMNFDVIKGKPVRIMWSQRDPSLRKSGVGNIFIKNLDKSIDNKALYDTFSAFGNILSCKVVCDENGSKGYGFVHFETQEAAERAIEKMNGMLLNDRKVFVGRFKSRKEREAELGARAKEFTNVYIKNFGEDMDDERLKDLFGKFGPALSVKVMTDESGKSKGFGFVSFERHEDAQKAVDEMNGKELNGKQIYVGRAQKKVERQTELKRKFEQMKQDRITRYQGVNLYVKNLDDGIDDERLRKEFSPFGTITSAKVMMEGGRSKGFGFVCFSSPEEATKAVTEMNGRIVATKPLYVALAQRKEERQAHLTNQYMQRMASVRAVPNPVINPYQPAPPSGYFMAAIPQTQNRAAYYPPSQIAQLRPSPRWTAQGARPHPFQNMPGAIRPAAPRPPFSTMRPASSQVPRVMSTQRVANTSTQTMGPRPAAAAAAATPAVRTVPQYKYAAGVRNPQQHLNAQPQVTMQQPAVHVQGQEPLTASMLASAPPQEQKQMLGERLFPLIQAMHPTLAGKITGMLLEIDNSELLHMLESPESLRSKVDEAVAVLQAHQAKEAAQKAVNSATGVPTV

[3] = molecular target: T2, Polyadenylate-binding protein 1; assay: PABP1 MLLE–PAM2 binding inhibitor potency, dose response, biochemical, fluorescence polarization, FITC-PAM2 peptide (AID 602259); assay type: functional; settings: read-out: IC50_Mean
[4] = molecular target: T3, Heat shock factor protein 1 (Mus musculus, UniProt P38532); assay: HSF1 potentiators in luciferase reporter cells, confirmation, cell-based, NIH3T3, luminescence, dose retest (AID 435004); assay type: functional;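 note: stress induced by proteasome inhibitor MG132 added 30 min after compound; luciferase reporter driven by HSF1 response element in NIH3T3 cells; actives raise luminescence as potentiators of the MG132 stress response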
T3 sequence (P38532 whole entry): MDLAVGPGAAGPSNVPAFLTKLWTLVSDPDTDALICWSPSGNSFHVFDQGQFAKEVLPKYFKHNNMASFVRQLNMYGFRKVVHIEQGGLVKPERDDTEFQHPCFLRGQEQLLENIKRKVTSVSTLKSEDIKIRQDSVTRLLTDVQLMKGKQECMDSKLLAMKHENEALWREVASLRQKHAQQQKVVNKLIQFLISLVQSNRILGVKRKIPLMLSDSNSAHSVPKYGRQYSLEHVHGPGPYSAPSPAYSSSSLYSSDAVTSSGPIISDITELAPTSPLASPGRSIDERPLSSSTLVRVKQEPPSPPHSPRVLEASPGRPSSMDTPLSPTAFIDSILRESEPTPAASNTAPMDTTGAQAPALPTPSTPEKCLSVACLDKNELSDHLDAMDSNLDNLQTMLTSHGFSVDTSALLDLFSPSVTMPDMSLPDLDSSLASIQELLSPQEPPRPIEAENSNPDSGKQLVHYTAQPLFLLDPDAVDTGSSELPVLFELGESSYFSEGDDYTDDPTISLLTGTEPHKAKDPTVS

[5] = HepG2 cell cytotoxicity, dose response, cytotoxicity control for Shn3 inhibitor project, CellTiter-Glo, cherry-picked (AID 624134); assay type: functional, cell-based
[6] = HEp-2 cell cytotoxicity, dose response, cytotoxicity control for RSV inhibitor project, HTS (AID 2410); assay type: functional; settings: human respiratory syncytial virus
Vero = assay: cells; assay type: functional; settings: Chlorocebus sabaeus
[7] = control 3'UTR Renilla luciferase suppression, dose response, counter-screen for Shn3 inhibitor project, cell-based, Clone20-Shn3RL, cherry-picked (AID 624133); assay type: functional
[8] = Shn3 3'UTR reporter inhibitors, dose response, cell-based, Clone20 osteoblasts, firefly luciferase, cherry-picked (AID 624132); assay type: functional;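 note: firefly luciferase luminescence from reporter carrying the Shn3 3'UTR in osteoblasts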
cells [9] = assay type: functional, cell-based
cells [10] = assay type: functional, cell-based; remark: listed apart in the source
Cytochrome P450 3A4 = Cytochrome P450 3A4 (Homo sapiens, UniProt P08684);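 note: CYP3A4 tested as one member of a cytochrome P450 panel screen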
Sequence of Cytochrome P450 3A4 (P08684 whole entry): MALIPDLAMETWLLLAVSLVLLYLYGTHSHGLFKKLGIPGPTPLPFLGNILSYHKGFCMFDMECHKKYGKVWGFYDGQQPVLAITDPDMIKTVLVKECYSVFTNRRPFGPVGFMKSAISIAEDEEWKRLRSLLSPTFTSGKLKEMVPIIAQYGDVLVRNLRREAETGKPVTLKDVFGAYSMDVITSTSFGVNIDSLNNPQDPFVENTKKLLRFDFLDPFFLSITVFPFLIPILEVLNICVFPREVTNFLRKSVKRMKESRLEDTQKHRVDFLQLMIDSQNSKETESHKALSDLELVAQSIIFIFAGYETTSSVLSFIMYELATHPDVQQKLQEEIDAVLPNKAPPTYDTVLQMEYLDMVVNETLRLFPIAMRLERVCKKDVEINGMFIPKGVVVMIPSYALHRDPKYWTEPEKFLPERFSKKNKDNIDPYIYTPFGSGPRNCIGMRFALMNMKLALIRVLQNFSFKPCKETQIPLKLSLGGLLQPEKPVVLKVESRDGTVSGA

Sequence of Cytochrome P450 2D6 (P10635 whole entry): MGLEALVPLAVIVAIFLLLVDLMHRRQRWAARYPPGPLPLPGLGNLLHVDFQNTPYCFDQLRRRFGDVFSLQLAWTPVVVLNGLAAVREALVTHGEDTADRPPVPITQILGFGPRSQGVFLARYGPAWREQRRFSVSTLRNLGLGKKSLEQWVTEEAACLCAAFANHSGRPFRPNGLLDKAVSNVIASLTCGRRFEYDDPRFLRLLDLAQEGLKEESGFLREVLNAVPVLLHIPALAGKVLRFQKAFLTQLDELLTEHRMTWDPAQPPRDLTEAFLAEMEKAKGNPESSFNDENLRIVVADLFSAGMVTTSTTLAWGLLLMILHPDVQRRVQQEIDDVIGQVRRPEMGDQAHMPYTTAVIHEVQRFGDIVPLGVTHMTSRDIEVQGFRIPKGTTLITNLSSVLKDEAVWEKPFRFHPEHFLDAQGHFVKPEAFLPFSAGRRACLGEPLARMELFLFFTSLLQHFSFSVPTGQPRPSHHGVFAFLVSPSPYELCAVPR

CCN1CCN(S(=O)(=O)c2ccc(Cl)nc2)CC1
AC50 (Cytochrome P450 2D6): 12.6 µM (inconclusive)

CCOC(=O)N1CCN(C(=O)c2ccc3c(c2)N(Cc2ccccc2)CCS3)CC1
IC50 [1]: > 20 µM (inactive)

CC1=NCCc2c1[nH]c1cc(O)ccc21
AC50 (Cytochrome P450 2D6): 7.94 µM (inconclusive)

COc1ccc(C(=S)N2CCN(c3ccccc3Cl)CC2)cc1OC
IC50 [2]: > 66 µM (inactive)
IC50 [3]: > 66 µM (inactive)

CSc1nccc(Nc2ccccc2)c1C#N
IC50 [1]: > 20 µM (inactive)

CSc1ccccc1-n1nnnc1SCC(=O)NCc1cccs1
EC50 [4]: > 260 µM (inactive)

Cn1c(/C=C/c2ccc(Cl)cc2Cl)c([N+](=O)[O-])c(=O)n(C)c1=O
AC50 [5]: 64.4 µM (active)
CC50 [6]: 37.5 µM (active)
CC50 (Vero): 20.5 µM (active)
AC50 [7]: 8.75 µM (active)
AC50 [8]: 6.87 µM (active)

COc1cccc(Cn2c(=O)cnc3cnc(OCc4ccccc4)nc32)c1
AC50 (Cytochrome P450 2D6): 39.8 µM (inconclusive)

Cn1c(Cn2nnc3ccccc32)nnc1SCC(=O)c1ccccc1F
EC50 [4]: > 260 µM (inactive)

CN(C)CCCN(C(=O)c1ccco1)c1nc2ccc(Cl)cc2s1
CC50 (Vero): > 25 µM (active)

CC1=CC(=O)C=C(C)C1=NOC(=O)/C=C\c1ccccc1
EC50 [4]: > 260 µM (inactive)

CSc1nc(C)cc(Nc2ccc(O)c(CN3CCCCC3)c2)n1
AC50 (Cytochrome P450 2D6): 3.16 µM (inconclusive)

O=[N+]([O-])c1cccc(-c2ccc3nnc(SCc4ccccn4)n3n2)c1
EC50 [4]: > 260 µM (inactive)

Cc1ccccc1-n1c(=O)n(Cc2ccc(C(=O)O)cc2)c(=O)c2[nH]cnc21
EC50 (cells [9]): > 350 µM (not active)
EC50 (cells [10]): > 350 µM (not active)

COc1nccc(C(F)(F)F)c1C(=O)NC(=O)Nc1ccccc1
EC50 (cells [9]): > 350 µM (not active)
EC50 (cells [10]): > 350 µM (not active)

N#Cc1sc2nc(N3CCCCC3)c3c(c2c1N)CCCC3
CC50 (Vero): > 25 µM (active)

Cc1cnc(CNc2nc(-c3ccccc3Cl)nc3ccccc23)cn1
AC50 (Cytochrome P450 3A4): 7.94 µM (inconclusive)
AC50 (Cytochrome P450 2D6): 25.1 µM (inconclusive)

CCCCCCC1NC(C(=O)O)CS1 (stereo not drawn)
IC50 [2]: > 66 µM (inactive)
IC50 [3]: > 66 µM (inactive)

Cc1nnc(SCc2cccc(Cl)c2)n(N)c1=O
EC50 (cells [9]): > 350 µM (not active)
EC50 (cells [10]): > 350 µM (not active)

O=C(Nc1ccc2c(c1)CCCN2C(=O)c1ccccc1)c1ccccc1Br
CC50 [6]: 10.5 µM (active)
CC50 (Vero): > 25 µM (active)

CCOC(=O)c1c(C)sc2c1N(C(=O)CN(CC)CC)c1ccccc1S2
EC50 [4]: > 260 µM (inactive)

CC(C)c1ccc2oc(=O)cc(CN3CCOCC3)c2c1
EC50 (cells [9]): > 350 µM (not active)
EC50 (cells [10]): > 350 µM (not active)

O=C(CCCN1C(=O)CCC1=O)Nc1ccccc1F
IC50 [2]: > 66 µM (inactive)
IC50 [3]: > 66 µM (inactive)

Cc1cccn2c(=O)c3cc(C(=O)NC4CCCC4)c(=N)n(Cc4ccc(F)cc4)c3nc12
CC50 (Vero): > 25 µM (active)

Cc1cccc(N(C(=O)c2snc(C(N)=O)c2N)C(C(=O)NC2CCCC2)c2ccc(C)o2)c1 (stereo not drawn)
IC50 [1]: > 20 µM (inactive)
